For series [1] the following is noted: cited from earlier work; for max. plasma concentration: in vivo.
In series [2] the target is T1, Na^+, K^+-ATPase (Homo sapiens, UniProt P05023).
T1 construct: The HEK-293 cell line endogenously expressing Na^+, K^+-ATPase; endogenous in cells; host or cells: HEK-293
In words: cell-based. The following applies: for Rank order: HEK-293, ranked on potency (IC50 value).
Protocol: Cells were plated at a density of 50,000 cells/well in 96-well microplates and incubated at 37° C., 5% CO2 until 80-90% confluency was attained

Series [3] has as its system HIF-1α expression. Description: Immunoblotting for hypoxia-mediated HIF-1α induction in human tumor cells (Caki-1, Panc-1). Type of series: cell-based. The following applies: Caki-1 or Panc-1 cells under hypoxia.
The nature of series [4]: Sample solubility noted in the rubidium uptake assay. Type of series: physicochemical. As to conditions: DMSO 1.0%.
Series [5] addresses Na^+, K^+-ATPase (Cricetulus griseus, UniProt A0A8C2N4Z0). Description: cell-based. Here is the method: (§1) Compounds were screened using Ion Channel Research (ICR) technology and a non-radioactive Rubidium Uptake Assay
(§2) For all the test compounds and standard blockers, 100× solutions were used to prepare 1× test doses for Na^+, K^+-ATPase screen in CHO cell line. The final DMSO concentration in each well was 1%.
(§3) • 1. […] Rb^+ Uptake: Cells were washed with 200 μl of Rb^+ Uptake Buffer once and R^+ loaded by application of 198 μl R^+ Uptake Buffer. Compounds were added at 2 μl/well of a 100× stock solution in 100% DMSO in the uptake buffer followed by incubation for 30 minutes at room temperature (c. 22° C.). The total volume in each well was 200 μl (198 μl of R^+ Uptake Buffer and 2 μl of the 100× compound). The 100× compound solution gets diluted in R^+ Uptake Buffer to 1× and the DMSO to 1%. • 3. Wash: Residual R^+ and compound were removed by four successive washes with 200 μl of SPA-Wash Buffer. • 4. Cell Lysis: Intracellular samples were obtained by whole cell lysis with the application of 200 μl Lysis Solution. • 5. Analysis: The level of R^+ in the intracellular samples was measured by ICR8000 (Aurora Biomed Inc., Vancouver, Canada). using flame atomic absorption spectroscopy.

Series [6] concerns Na^+, K^+-ATPase. In words: cell-based. As to conditions: for Inhibition (%) / Normalized Uptake (%): CHO-K1; for Sample Solubility: CHO-K1 screen test wells, 1% DMSO. Here is the method:
as §1, §2, §3

The test system of series [7] is HIF-1α accumulation. In words: Western blot of HIF-1α induced by PHD inhibitor L-mimosone under normoxia in Hep3B cells. Type of series: cell-based. The following applies: 200 μM L-mimosone for 18 hours, Western blotting. Here is the method: Abundance of HIF1α and β-actin was determined by Western blotting.
On the technique in general: In western blotting, separated proteins are transferred to a membrane and probed.

On to `C[C@@H]1O[C@@H](O[C@H]2C[C@@H](O)[C@]3(CO)[C@H]4[C@H](O)C[C@]5(C)[C@@H](C6=CC(=O)OC6)CC[C@]5(O)[C@@H]4CC[C@]3(O)C2)[C@H](O)[C@H](O)[C@H]1O` [BNC1, ouabain], for which the max. plasma concentration entry in series [1] is “about 0.03 μg/mL”.

Consider `C[C@@H]1O[C@@H](O[C@@H]2C=C3CC[C@@H]4[C@H](CC[C@]5(C)[C@@H](c6ccc(=O)oc6)CC[C@]45O)[C@@]3(C)CC2)[C@H](O)[C@H](O)[C@H]1O` [BNC4, proscillaridin, reference compound], for which the IC50 (commonly the concentration that inhibits the measured activity by half) in series [2] is 0.24 µM; in series [5], 46.4 µM. The same compound showed a Rank order in series [2] of 1. In addition, the “Potency in inhibiting HIF-1α expression relative to BNC1” value in series [3] is on record as “about 10 times”. The “Sample Solubility” value in series [4] and in series [6] was “Good” each time. In addition, the “plasma half-life in human” value in series [1] (human, according to the literature) is given as “about 40 hours”. Also, the max. plasma concentration entry in series [1] is “about 0.1 μg/mL”. The “Inhibition (%)” value was 1.3% in series [6] (dose 0.50 uM); 0.0% in series [6] (dose 1.0 uM); 9.0% in series [6] (dose 5.0 uM); 20.6% in series [6] (dose 10 uM); 51.8% in series [6] (dose 50 uM); 69.8% in series [6] (dose 100 uM). The “Inhibition (%)” value in series [6] (dose 200 uM) was determined as 86.7%; in series [6] (dose 500 uM), 100.0%. Further, the “Normalized Uptake (%)” value in series [6] (dose 0.50 uM) was 99.4%; in series [6] (dose 1.0 uM), 100.3%; in series [6] (dose 5.0 uM) it was 93.8%; in series [6] (dose 10 uM) it was 80.5%; in series [6] (dose 50 uM) it was 54.6%; in series [6] (dose 100 uM), 44.0%. Moreover, the figures for the “Normalized Uptake (%)” value in series [6] (dose 200 uM) and in series [6] (dose 500 uM) were 38.2% and 28.7%, respectively. For the same compound, the “Effect on HIF-1α accumulation induced by L-mimosone” value in series [7] is given as “eliminated HIF-1α accumulation”.

As to `C[C@]12CCC(=NOCCN3CCC(Cc4ccccc4)CC3)C=C1CCC1C2CC[C@]2(C)[C@@H](c3ccc(=O)oc3)CC[C@]12O` (some centres unmarked) [BP249, 3-[2-(4-Benzylpiperidinoethoxy)imino]-scillarinone], the figures for the IC50 in series [2] and in series [5] were 5.53 µM and 41.9 µM, respectively. Moreover, the Rank order in series [2] is recorded as 4. Further, the “Sample Solubility” value in series [4] and in series [6] was “Good” each time. Moreover, the “Inhibition (%)” value in series [6] (dose 0.50 uM) is on record as 0.6%; in series [6] (dose 1.0 uM) it was 0.0%; in series [6] (dose 5.0 uM), 2.6%; in series [6] (dose 10 uM), 17.9%; in series [6] (dose 50 uM), 54.2%; in series [6] (dose 100 uM) it was 73.4%. The results for the “Inhibition (%)” value in series [6] (dose 200 uM) and in series [6] (dose 500 uM) were 87.8% and 100.0%, respectively. Besides, the “Normalized Uptake (%)” value in series [6] (dose 0.50 uM) is listed as 103.0%; in series [6] (dose 1.0 uM), 103.5%; in series [6] (dose 5.0 uM), 100.7%; in series [6] (dose 10 uM) it was 87.9%; in series [6] (dose 50 uM), 57.3%; in series [6] (dose 100 uM) it was 41.0%. Moreover, the “Normalized Uptake (%)” value in series [6] (dose 200 uM) was 29.0%; in series [6] (dose 500 uM), 18.7%.

The values are drawn from patent US20100249082A1, “MODULATORS OF HYPOXIA INDUCIBLE FACTOR-1 AND RELATED USES” (Bionaut Pharmaceuticals INC., priority 2007, published 2010).
